# According to patent publication US11274165B2, “Pentosan polysulfate, pharmaceutical composition, and anticoagulant” (OJI HOLDINGS CORPORATION, priority 2017, dated 2022):
# Experiments:
# [1] = tested on: factor Xa; assay: Anti-Xa activity measured using Test Team Heparin S (Sekisui Medical); type: biochemical; conditions: for Anti-Xa/anti-IIa activity ratio: ratio of anti-Xa activity to anti-IIa activity
# Method: Herein, the factor Xa inhibitory activity (anti-Xa activity) can be measured using Test Team (registered trademark) Heparin S (manufactured by Sekisui Medical Co., Ltd.).
# Using Test Team (registered trademark) Heparin S (manufactured by Sekisui Medical Co., Ltd.), the anti-Xa activity of pentosan polysulfate sodium was measured.
# (§1) The content of acetyl groups, the content of sulfur, the anti-Xa activity, and the anti-IIa activity were measured in the same manners as those of Examples 1 to 5.
# [2] = molecular target: T1, factor IIa (Homo sapiens, UniProt P00734); assay: Anti-IIa activity measured using Biophen heparin anti-IIa (Hyphen Biomed); type: biochemical
# T1 construct: purchased Hyphen Biomed
# Method: Moreover, the factor IIa inhibitory activity (anti-IIa activity) can be measured using Biophen heparin anti-IIa (manufactured by Hyphen Biomed).
# Using Biophen heparin anti-IIa (manufactured by Hyphen Biomed), the anti-IIa activity of pentosan polysulfate sodium was measured.
# as §1
# [3] = Table 3, influence of molecular weight
# [4] = Table 1, influence of content of acetyl groups
"Anti-IIa activity (IU/mg) [2, 3] [IU/mg]","Anti-IIa activity (IU/mg) [2, 4] [IU/mg]",Substance,"Anti-Xa activity (IU/mg) [1, 3] [IU/mg]",Anti-Xa/anti-IIa activity ratio ([1]; Table 3),"Anti-Xa activity (IU/mg) [1, 4] [IU/mg]",Anti-Xa/anti-IIa activity ratio ([1]; Table 1)
62.12,–,"pentosan polysulfate sodium [Comp. Ex. 3, reference compound]",16.61,0.15,–,–
–,0.0976,pentosan polysulfate sodium [Ex. 5],–,–,0.2297,2.352
–,0.0934,pentosan polysulfate sodium [Ex. 4],–,–,0.2419,2.591
15.52,–,pentosan polysulfate sodium [Comp. Ex. 2],1.69,0.11,–,–
–,0.1845,pentosan polysulfate sodium [Ex. 2],–,–,0.2588,1.403
–,0.0221,"pentosan polysulfate sodium [Comp. Ex. 1, reference compound]",–,–,0.0840,3.801
–,0.0676,pentosan polysulfate sodium [Ex. 3],–,–,0.2439,3.607
–,0.1405,pentosan polysulfate sodium [Ex. 1],–,–,0.2047,1.457
6.80,–,pentosan polysulfate sodium [Comp. Ex. 4],0.73,0.11,–,–
0.15,–,pentosan polysulfate sodium [Ex. 6],0.67,4.29,–,–
0.12,–,pentosan polysulfate sodium [Ex. 7],0.15,1.25,–,–
0.43,–,pentosan polysulfate sodium [Ex. 8],0.22,0.51,–,–
